Values quoted from earlier work in patent US20060251704A1, “Methods and devices for efficacious treatment of aphthous ulcers” (priority 2005, published 2006).

Test system: aphthous ulcers (RAS)
Conditions: by the 6th day

CC(C)c1ccc2oc3nc(N)c(C(=O)O)cc3c(=O)c2c1 [amlexanox]
patients with healed ulcers (vehicle control 54.7%): 65.6%
patients pain free (patients with RAS, control group 72.8%): 82.8%
